Measured values published in article PMC6736568, “Discovery of Novel Anti-cryptosporidial Activities From Natural Products by in vitro High-Throughput Phenotypic Screening” (Frontiers in Microbiology, 2019).
Where a name gives a salt, the structure may show the parent alone. Read-outs that look alike come from different tables or passages of the source.

Assays:
in vitro = conditions: for cytotoxicity at 41 h, 10 µM: human
Cryptosporidium parvum = assay: qRT-PCR assay of the growth of C. parvum in vitro in HCT-8 host cells (primary and secondary screening, EC50); assay type: cell-based; conditions: Cryptosporidium parvum, HCT-8; primary screening at 10 uM; read-out: Inhibition (%)
[1] = primary screening at 10 uM, treated vs control

| Hs18S ΔCT (HCT-8 host cells (Hs18S); human, 41 h, 10 μM) | Hs18S ΔCT (HCT-8 host cells (Hs18S)) | SMILES | cytotoxicity at 10 µM (in vitro) [%] | Hs18S ΔCT (HCT-8 host cells (Hs18S); [1]) | inhibition at 10 µM (Cryptosporidium parvum) [%] | cytotoxicity at 41 h, 10 µM (in vitro) [%] |
| --- | --- | --- | --- | --- | --- | --- |
| -0.69 | – | CC(C)/C(O)=C1/C(=O)O[C@@H](c2ccoc2)[C@]2(C)C(O)[C@@H](O)[C@@]34OC5(C)OC67CC(C)(C(O)[C@]6(O)[C@@H](O)[C@]3(O5)C12)[C@H](CC(=O)O)[C@]74C (stereo partly drawn) [HYDROLYSIS PRODUCT OF BUSSEIN] | – | – | 8.3 | -60.9 |
| 0.26 | – | COc1ccc2c(C)cc(=O)oc2c1 [HYMECROMONE METHYL ETHER] | – | – | -1.44 | 16.6 |
| 0.22 | – | O=c1[nH]cnc2nc[nH]c12 [HYPOXANTHINE] | – | – | 23.2 | 14.3 |
| -0.32 | – | COc1c(O)cc(O)cc1O [IRETOL] | – | – | -15 | -24.7 |
| -0.14 | – | COc1cc(-c2coc3cc(O[C@@H]4O[C@H](CO)[C@@H](O)[C@H](O)[C@H]4O)c(OC)c(O)c3c2=O)cc(O)c1OC [IRIDIN] | – | – | -13.3 | -10 |
| 0.00 | – | COc1cc(-c2coc3cc(OCc4ccccc4)c(OC)c(O)c3c2=O)cc(OCc2ccccc2)c1OC [IRIGENIN, DIBENZYL ETHER] | – | – | -15.7 | 0 |
| -0.43 | – | COc1cc(-c2coc3cc(O)c(OC)c(O)c3c2=O)cc(O)c1OC [IRIGENIN] | – | – | -15 | -34.9 |

The next lines start with the compound.

| SMILES | Hs18S ΔCT (HCT-8 host cells (Hs18S); human, 41 h, 10 μM) | Hs18S ΔCT (HCT-8 host cells (Hs18S)) | cytotoxicity at 10 µM (in vitro) [%] | Hs18S ΔCT (HCT-8 host cells (Hs18S); [1]) | inhibition at 10 µM (Cryptosporidium parvum) [%] | cytotoxicity at 41 h, 10 µM (in vitro) [%] |
| --- | --- | --- | --- | --- | --- | --- |
| Cc1nccc2c1[nH]c1cc(O)ccc12 [HARMOL HYDROCHLORIDE] | – | – | -10.1 | -0.14 | -55.1 | – |
| C[C@]1(OC(=O)/C=C/c2ccccc2)C[C@@H](O)[C@]2(O)C=CO[C@@H](O[C@@H]3O[C@H](CO)[C@@H](O)[C@H](O)[C@H]3O)[C@@H]21 [HARPAGOSIDE] | 0.36 | – | – | – | -42.1 | 21.8 |
| CC(=O)O[C@H]1CC[C@@]2(C)[C@@H](CC[C@@H]3[C@@H]2CC(=O)[C@]2(C)[C@@H]4[C@H](C[C@@H]32)O[C@]2(CC[C@@H](C)CO2)[C@H]4C)C1 [HECOGENIN ACETATE] | -0.05 | – | – | – | 6.66 | -3.7 |
| CC1(C)CC[C@]2(C(=O)O)CC[C@]3(C)C(=CC[C@@H]4[C@@]5(C)CC[C@H](O)[C@@](C)(CO)[C@@H]5CC[C@]43C)[C@@H]2C1 [HEDERAGENIN] | – | – | -7.7 | -0.11 | 53.4 | – |
| C=C1C(=O)O[C@@H]2C[C@@]3(C)CCC[C@H](C)C3=C[C@H]12 [HELENINE] | 0.10 | – | – | – | -20 | 6.4 |
| O=Cc1ccccc1O[C@@H]1O[C@H](CO)[C@@H](O)[C@H](O)[C@H]1O [HELICIN] | 0.07 | – | 4.7 | – | 18.6 | – |
| O=C1C=C2CC3(O)COc4c(ccc(O)c4O)C3=C2C=C1O (stereo not drawn) [HEMATEIN] | 0.13 | – | – | – | 10.1 | 8.6 |
| COc1ccc([C@@H]2CC(=O)c3c(O)cc(O)cc3O2)cc1O [HESPERETIN] | -0.02 | – | – | – | 17.6 | -1.2 |
| COc1cc(O)c2c(=O)cc(C)oc2c1CC=C(C)C [HETEROPEUCENIN, METHYL ETHER] | -0.10 | – | – | – | -96.3 | -7.2 |
| NCCc1c[nH]cn1 [HISTAMINE DIHYDROCHLORIDE] | – | 0.02 | 1.3 | – | -20.6 | – |
| COc1ccc2c(c1)O[C@H]1c3ccc(OC)cc3OC[C@@H]21 [HOMOPTEROCARPIN] | – | – | -0.7 | -0.01 | 5.57 | – |
| C/C=C1\[C@H]2C=C(C)C[C@]1(N)c1ccc(=O)[nH]c1C2 [HUPERZINE A] | – | – | 12.4 | 0.19 | 37.6 | – |
| C[C@]12CCC(=O)C=C1CC[C@@H]1[C@@H]2[C@@H](O)C[C@@]2(C)[C@H]1CC[C@]2(O)C(=O)CO [HYDROCORTISONE] | -0.47 | – | – | – | 21.1 | -38.1 |
| CN1[C@@H]2CC[C@H]1C[C@@H](OC(=O)[C@H](CO)c1ccccc1)C2 [HYOSCYAMINE] | – | – | -8.9 | -0.12 | 36.2 | – |
| COc1ccc(-c2oc3c(CC=C(C)C)c(O[C@@H]4O[C@H](CO)[C@@H](O)[C@H](O)[C@H]4O)cc(O)c3c(=O)c2O[C@@H]2O[C@@H](C)[C@H](O)[C@@H](O)[C@H]2O)cc1 [ICARIIN] | -0.22 | – | – | – | -12.3 | -16.4 |
| OCc1c[nH]c2ccccc12 [INDOLE-3-CARBINOL] | – | – | – | -0.40 | 0.77 | -31.7 |
| O[C@H]1[C@H](O)[C@@H](O)[C@H](O)[C@@H](O)[C@H]1O [INOSITOL] | – | – | – | 0.08 | 11.9 | 5.5 |
| COc1cc(-c2coc3cc(OC)c(OC)c(OC)c3c2=O)cc(OC)c1OC [IRIGENIN TRIMETHYL ETHER] | – | – | -39.9 | -0.48 | 13.7 | – |
